Assay results reported in ChEMBL document CHEMBL3885861, “Open TG-GATES”.

Species: Rattus norvegicus
Assay: Open TG-GATES - Regimen: Single
Format: toxicity, organism-based, Sprague-Dawley
Set-up: regimen Single, gender Male, age 6 weeks
Details: in vivo, po, 0 mg/kg, route gavage, dose level Control; for APTT / Bas / Eos / Fbg / Hb / Ht / Lym / MCH / MCHC / MCV / Mono / Neu / PT / Plat / RBC / Ret / WBC: tissue Blood; for KIDNEY_L / KIDNEY_R / KIDNEY_TOTAL: tissue Kidney; for LIVER: tissue Liver; for A/G / ALP / ALT / AST / BUN / CRE / Ca / Cl / DBIL / GLC / IP / K / LDH / Na / PL / RALB / TBIL / TC / TG / TP / gamma-GTP: tissue Plasma

`CCN1CCCC1CNC(=O)c1cc(S(N)(=O)=O)ccc1OC` (configuration not stated) [SULPIRIDE] was tested, and the TERMINAL_BW (3 h) was 201.8 g, the APTT (3 h) was 17.6 s and the Bas (3 h) was 0%. It also gave an Eos (3 h) of 0.6%, a Fbg (3 h) of 247.8 mg/dL and a Hb (3 h) of 13.4 g/dL. For the same compound, the Ht (3 h) was 41.4%, the Lym (3 h) was 80.2% and the MCH (3 h) was 20.9 pg. For the same compound, the MCHC (3 h) was 32.3%, the MCV (3 h) was 64.8 fL and the Mono (3 h) was 2.4%. The Neu (3 h) was 16%, the PT (3 h) was 14.1 s and the Plat (3 h) was 117.7 x10_4/uL. For the same compound, the RBC (3 h) was 639.8 x10_4/ul, the Ret (3 h) was 7.5% and the WBC (3 h) was 81.5 x10_2/uL. The KIDNEY_L (3 h) was 0.9 g, the KIDNEY_R (3 h) was 0.9 g and the KIDNEY_TOTAL (3 h) was 1.9 g. The LIVER (3 h) was 8.6 g, the A/G (3 h) was 0.9 and the ALP (3 h) was 1902.2 IU/L. The ALT (3 h) was 49 IU/L, the AST (3 h) was 92.6 IU/L and the BUN (3 h) was 10.6 mg/dL. The CRE (3 h) was 0.2 mg/dL, the Ca (3 h) was 11 mg/dL and the Cl (3 h) was 105.8 meq/L. For the same compound, the DBIL (3 h) was 0.01 mg/dL, the GLC (3 h) was 177 mg/dL and the IP (3 h) was 8.9 mg/dL. It also gave a K (3 h) of 4.5 meq/L, an LDH (3 h) of 173.6 IU/L and a Na (3 h) of 140.8 meq/L. The PL (3 h) was 116 mg/dL, the RALB (3 h) was 2.4 g/dL and the TBIL (3 h) was 0.074 mg/dL. It also gave a TC (3 h) of 60.8 mg/dL, a TG (3 h) of 50.2 mg/dL and a TP (3 h) of 5.1 g/dL. For the same compound, the gamma-GTP (3 h) was 1.6 IU/L, the TERMINAL_BW (6 h) was 198.5 g and the APTT (6 h) was 17.4 s. For the same compound, the Bas (6 h) was 0.2%, the Eos (6 h) was 0.8% and the Fbg (6 h) was 276.2 mg/dL. For the same compound, the Hb (6 h) was 13.3 g/dL, the Ht (6 h) was 41.6% and the Lym (6 h) was 79.4%. The MCH (6 h) was 20.5 pg, the MCHC (6 h) was 32% and the MCV (6 h) was 64.1 fL. It also gave a Mono (6 h) of 2.4%, a Neu (6 h) of 16.4% and a PT (6 h) of 13.5 s. The Plat (6 h) was 123.5 x10_4/uL, the RBC (6 h) was 649.6 x10_4/ul and the Ret (6 h) was 8%. It also gave a WBC (6 h) of 87.4 x10_2/uL, a KIDNEY_L (6 h) of 0.9 g and a KIDNEY_R (6 h) of 0.9 g. It also gave a KIDNEY_TOTAL (6 h) of 1.8 g, an LIVER (6 h) of 8.6 g and an A/G (6 h) of 0.9. For the same compound, the ALP (6 h) was 1354.6 IU/L, the ALT (6 h) was 38.2 IU/L and the AST (6 h) was 78 IU/L. The BUN (6 h) was 9 mg/dL, the CRE (6 h) was 0.2 mg/dL and the Ca (6 h) was 10.7 mg/dL. The Cl (6 h) was 105 meq/L, the DBIL (6 h) was 0.01 mg/dL and the GLC (6 h) was 192.2 mg/dL. It also gave an IP (6 h) of 9.3 mg/dL, a K (6 h) of 4.3 meq/L and an LDH (6 h) of 105 IU/L. For the same compound, the Na (6 h) was 141.2 meq/L, the PL (6 h) was 128.6 mg/dL and the RALB (6 h) was 2.5 g/dL. The TBIL (6 h) was 0.072 mg/dL, the TC (6 h) was 72.2 mg/dL and the TG (6 h) was 53 mg/dL. The TP (6 h) was 5.2 g/dL, the gamma-GTP (6 h) was 1.8 IU/L and the TERMINAL_BW (9 h) was 200.2 g. The APTT (9 h) was 16.9 s, the Bas (9 h) was 0.2% and the Eos (9 h) was 1%. The Fbg (9 h) was 302.8 mg/dL, the Hb (9 h) was 13.3 g/dL and the Ht (9 h) was 41.6%. It also gave a Lym (9 h) of 74.2%, an MCH (9 h) of 19.8 pg and an MCHC (9 h) of 32%. The MCV (9 h) was 62 fL, the Mono (9 h) was 2.6% and the Neu (9 h) was 21.6%. For the same compound, the PT (9 h) was 13.5 s, the Plat (9 h) was 126.7 x10_4/uL and the RBC (9 h) was 670.8 x10_4/ul. For the same compound, the Ret (9 h) was 7.8%, the WBC (9 h) was 76.7 x10_2/uL and the KIDNEY_L (9 h) was 0.9 g. It also gave a KIDNEY_R (9 h) of 0.9 g, a KIDNEY_TOTAL (9 h) of 1.8 g and an LIVER (9 h) of 8.1 g. The A/G (9 h) was 0.9, the ALP (9 h) was 1441.6 IU/L and the ALT (9 h) was 69 IU/L. It also gave an AST (9 h) of 70.4 IU/L, a BUN (9 h) of 7.6 mg/dL and a CRE (9 h) of 0.2 mg/dL. The Ca (9 h) was 10.7 mg/dL, the Cl (9 h) was 105.4 meq/L and the DBIL (9 h) was 0.006 mg/dL. It also gave a GLC (9 h) of 170.8 mg/dL, an IP (9 h) of 9.8 mg/dL and a K (9 h) of 3.9 meq/L. The LDH (9 h) was 132.4 IU/L, the Na (9 h) was 141.4 meq/L and the PL (9 h) was 125 mg/dL. The RALB (9 h) was 2.5 g/dL, the TBIL (9 h) was 0.074 mg/dL and the TC (9 h) was 70.8 mg/dL. For the same compound, the TG (9 h) was 61 mg/dL, the TP (9 h) was 5.3 g/dL and the gamma-GTP (9 h) was 1.4 IU/L. It also gave a TERMINAL_BW (24 h) of 216.8 g, an APTT (24 h) of 17.3 s and a Bas (24 h) of 0.4%. The Eos (24 h) was 1%, the Fbg (24 h) was 278 mg/dL and the Hb (24 h) was 13.3 g/dL. For the same compound, the Ht (24 h) was 41.1%, the Lym (24 h) was 76.4% and the MCH (24 h) was 20.7 pg. It also gave an MCHC (24 h) of 32.4%, an MCV (24 h) of 63.9 fL and a Mono (24 h) of 3.2%. The Neu (24 h) was 18.4%, the PT (24 h) was 13.1 s and the Plat (24 h) was 127.4 x10_4/uL. For the same compound, the RBC (24 h) was 642.4 x10_4/ul, the Ret (24 h) was 7.4% and the WBC (24 h) was 96.8 x10_2/uL. It also gave a KIDNEY_L (24 h) of 0.9 g, a KIDNEY_R (24 h) of 0.9 g and a KIDNEY_TOTAL (24 h) of 1.8 g. The LIVER (24 h) was 9.8 g, the A/G (24 h) was 0.9 and the ALP (24 h) was 1626.2 IU/L. It also gave an ALT (24 h) of 39.6 IU/L, an AST (24 h) of 77.2 IU/L and a BUN (24 h) of 14.6 mg/dL. For the same compound, the CRE (24 h) was 0.2 mg/dL, the Ca (24 h) was 10.9 mg/dL and the Cl (24 h) was 106.4 meq/L. The DBIL (24 h) was 0.012 mg/dL, the GLC (24 h) was 186.2 mg/dL and the IP (24 h) was 7.5 mg/dL. The K (24 h) was 4.2 meq/L, the LDH (24 h) was 98.2 IU/L and the Na (24 h) was 141.6 meq/L. It also gave a PL (24 h) of 140 mg/dL, an RALB (24 h) of 2.5 g/dL and a TBIL (24 h) of 0.058 mg/dL. For the same compound, the TC (24 h) was 74 mg/dL, the TG (24 h) was 96.8 mg/dL and the TP (24 h) was 5.4 g/dL. It also gave a gamma-GTP (24 h) of 1 IU/L.
